What follows are molecules tested against T1, mouse ENT-1 transporter (Mus musculus, UniProt Q9JIM1) (assay: Measure of adenosine transport activity (ENT1 adenosine uptake inhibition)). Conditions: stable cells expressing mouse ENT-1, [2,8-3H]-adenosine 6 nM, 20 min.
T1 construct: expressed in transfected cells
T1 sequence (Q9JIM1 1-460): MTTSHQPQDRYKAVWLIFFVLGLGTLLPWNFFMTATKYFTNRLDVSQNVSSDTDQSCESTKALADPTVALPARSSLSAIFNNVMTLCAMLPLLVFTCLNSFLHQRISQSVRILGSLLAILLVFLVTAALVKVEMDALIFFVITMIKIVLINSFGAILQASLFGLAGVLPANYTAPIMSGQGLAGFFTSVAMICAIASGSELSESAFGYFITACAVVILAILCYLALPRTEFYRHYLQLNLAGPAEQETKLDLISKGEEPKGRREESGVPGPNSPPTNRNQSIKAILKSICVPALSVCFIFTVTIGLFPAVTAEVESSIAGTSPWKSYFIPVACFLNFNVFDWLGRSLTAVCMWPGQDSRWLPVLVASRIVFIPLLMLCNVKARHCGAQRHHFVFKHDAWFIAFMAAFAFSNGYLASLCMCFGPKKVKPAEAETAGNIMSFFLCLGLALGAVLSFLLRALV
Format: cell-based
Method: To measure adenosine transport activity of ENT-1 mammalian cells, stable cells expressing the mouse ENT-1 transporter were plated on day 1 in 96-well culture plates at the density of 60,000 cells/well, in complete DMEM/F12 medium supplemented with glutamax, 10% FBS and 10 μg/ml puromycin. On day 2, the medium was aspirated and the cells were washed twice with uptake buffer (10 mM Hepes-Tris, pH 7.4 containing 150 mM NaCl, 1 mM CaCl2), 2.5 mM KCl, 2.5 mM MgSO4, 10 mM D-glucose) (UB). For inhibition experiments, cells were then incubated at RT with various concentrations of compounds with 1% DMSO final. Non-specific uptake was defined in the presence of 10 μM S-(4-Nitrobenzyl)-6-thioinosine (NBTI, Sigma Cat #N2255).
The plates were then incubated for 20 min with gentle shaking and the reaction was stopped by aspiration of the mixture and washing (three times) with ice-cold UB. The cells were lysed by the addition of scintillation liquid, shaken 3 hours and the radioactivity in the cells was estimated using a microplates scintillation counter (TopCount NXT, Packard).

With “3,3-dimethyl-6-(2-methylpyrimidin-5-yl)-1-(1-(2,2,2-trifluoroethyl)-1H-pyrazol-3-yl)indolin-2-one [Example 139]” as the molecule, how does the IC50 read?
The IC50 was 0.14 µM.

For “5-(3,3-dimethyl-1-(5-methylpyrimidin-2-yl)-2-oxoindolin-6-yl)-2-methylpyrimidine 1-oxide [Example 101]”, which IC50 is on record?
The IC50 was 2.4 µM.

How did the IC50 turn out when `Cc1ncc(-c2ccc3c(c2)N(c2ccc(C)[n+]([O-])n2)C(=O)C3(C)C)cn1` (single isomer, unassigned) [Example 106, 3-(3,3-dimethyl-6-(2-methylpyrimidin-5-yl)-2-oxoindolin-1-yl)-6-methylpyridazine 1-oxide] was run?
The IC50 was 0.481 µM.

With `Cc1ncc(-c2ccc3c(c2)N(c2cccnc2)C(=O)C3(C)C)cn1` [Example 3, 3,3-Dimethyl-6-(2-methylpyrimidin-5-yl)-1-(pyridin-3-yl)indolin-2-one] as the molecule, how does the IC50 read?
Its IC50 is 1.78 µM.

With `Cc1ncc(-c2ccc3c(c2)N(c2cc(C)n(C)n2)C(=O)C3(C)C)cn1` [Example 5, 1-(1,5-Dimethyl-1H-pyrazol-3-yl)-3,3-dimethyl-6-(2-methylpyrimidin-5-yl)indolin-2-one] as the molecule, how does the IC50 read?
The IC50 was 1.05 µM.

How did the IC50 turn out when `Cc1cc(N2C(=O)C(C)(C)c3ccc(-c4cnc(C)nc4)cc32)ccn1` [Example 6, 3,3-Dimethyl-1-(2-methylpyridin-4-yl)-6-(2-methylpyrimidin-5-yl)indolin-2-one] was run?
The IC50 was 2.13 µM.

For `Cc1cc(N2C(=O)C(C)(C)c3ccc(-c4cnc(C)nc4)cc32)ncn1` [Example 7, 3,3-Dimethyl-1-(6-methylpyrimidin-4-yl)-6-(2-methylpyrimidin-5-yl)indolin-2-one], which IC50 is on record?
The IC50 was 1.54 µM.

With `Cc1ncc(-c2ccc3c(c2)N(c2cncnc2)C(=O)C3(C)C)cn1` [Example 8, 3,3-Dimethyl-6-(2-methylpyrimidin-5-yl)-1-(pyrimidin-5-yl)indolin-2-one] as the molecule, how does the IC50 read?
The IC50 was 3.89 µM.

Which IC50 does the source give for `Cc1ccc(-c2ccc3c(c2)N(c2cn(C)cn2)C(=O)C3(C)C)cn1` [Example 10, 3,3-Dimethyl-1-(1-methyl-1H-imidazol-4-yl)-6-(6-methylpyridin-3-yl)indolin-2-one] here?
Its IC50 is 5.88 µM.

For `Cc1cc(-c2ccc3c(c2)N(c2cn(C)cn2)C(=O)C3(C)C)ccn1` [Example 11, 3,3-Dimethyl-1-(1-methyl-1H-imidazol-4-yl)-6-(2-methylpyridin-4-yl)indolin-2-one], which IC50 is on record?
The IC50 was 7.03 µM.

For `Cc1ccc(N2C(=O)C(C)(C)c3ccc(-c4cnc(C)nc4)cc32)cn1` [Example 12, 3,3-Dimethyl-1-(6-methylpyridin-3-yl)-6-(2-methylpyrimidin-5-yl)indolin-2-one], which IC50 is on record?
Its IC50 is 0.148 µM.

Which IC50 does the source give for `Cc1ccc(-c2ccc3c(c2)N(c2ccn(C)n2)C(=O)C3(C)C)cn1` [Example 13, 3,3-Dimethyl-1-(1-methyl-1H-pyrazol-3-yl)-6-(6-methylpyridin-3-yl)indolin-2-one] here?
Its IC50 is 1.15 µM.

With `Cc1ccc(-c2ccc3c(c2)N(c2ccnc(C)c2)C(=O)C3(C)C)cn1` [Example 19, 3,3-Dimethyl-6-(6-methylpyridin-3-yl)-1-(2-methylpyridin-4-yl)indolin-2-one] as the molecule, how does the IC50 read?
Its IC50 is 3.45 µM.

`Cc1cc(-c2ccc3c(c2)N(c2ccnc(C)c2)C(=O)C3(C)C)ccn1` [Example 20, 3,3-Dimethyl-1,6-bis(2-methylpyridin-4-yl)indolin-2-one] was tested. Which IC50 did it give?
The IC50 was 5.67 µM.

`Cc1cc(N2C(=O)C(C)(C)c3ccc(-n4cnc(C5CC5)c4)cc32)ccn1` [Example 21, 6-(4-Cyclopropylimidazol-1-yl)-3,3-dimethyl-1-(2-methyl-4-pyridyl)indolin-2-one] was tested. Which IC50 did it give?
The IC50 was 4.02 µM.

For `Cc1cc(N2C(=O)C(C)(C)c3ccc(-c4cnccc4F)cc32)ccn1` [Example 24, 6-(4-Fluoropyridin-3-yl)-3,3-dimethyl-1-(2-methylpyridin-4-yl)indolin-2-one], which IC50 is on record?
The IC50 was 8.79 µM.

`Cc1ncc(-c2ccc3c(c2)N(c2ccc(C)s2)C(=O)C3(C)C)cn1` [Example 27, 3,3-Dimethyl-6-(2-methylpyrimidin-5-yl)-1-(5-methylthiophen-2-yl)indolin-2-one] was tested. Which IC50 did it give?
The IC50 was 0.355 µM.

Which IC50 does the source give for `Cc1ncc(-c2ccc3c(c2)N(c2ccc(C#N)nc2)C(=O)C3(C)C)cn1` [Example 30, 5-(3,3-Dimethyl-6-(2-methylpyrimidin-5-yl)-2-oxoindolin-1-yl)picolinonitrile] here?
Its IC50 is 2.14 µM.

Which IC50 does the source give for `Cc1ncc(-c2ccc3c(c2)N(c2ccc(CO)nc2)C(=O)C3(C)C)cn1` [Example 31, 1-(6-(Hydroxymethyl)pyridin-3-yl)-3,3-dimethyl-6-(2-methylpyrimidin-5-yl)indolin-2-one] here?
Its IC50 is 0.168 µM.

With `Cc1ncc(-c2ccc3c(c2)N(c2ccc(C4CC4)nc2)C(=O)C3(C)C)cn1` [Example 32, 1-(6-Cyclopropylpyridin-3-yl)-3,3-dimethyl-6-(2-methylpyrimidin-5-yl)indolin-2-one] as the molecule, how does the IC50 read?
The IC50 was 0.059 µM.

With `Cc1ccc(N2C(=O)C(C)(C)c3ccc(-n4cnc(C(C)C)c4)cc32)cn1` [Example 33, 6-(4-Isopropylimidazol-1-yl)-3,3-dimethyl-1-(6-methyl-3-pyridyl)indolin-2-one] as the molecule, how does the IC50 read?
The IC50 was 1.22 µM.

For `Cc1cc(N2C(=O)C(C)(C)c3ccc(-n4cnc(C(C)C)c4)cc32)ccn1` [Example 36, 6-(4-Isopropylimidazol-1-yl)-3,3-dimethyl-1-(2-methyl-4-pyridyl)indolin-2-one], which IC50 is on record?
Its IC50 is 2.46 µM.

How did the IC50 turn out when `Cc1ncc(N2C(=O)C(C)(C)c3ccc(-n4cnc(C(C)C)c4)cc32)cn1` [Example 38, 6-(4-Isopropylimidazol-1-yl)-3,3-dimethyl-1-(2-methylpyrimidin-5-yl)indolin-2-one] was run?
Its IC50 is 0.426 µM.

`Cc1ncc(-c2ccc3c(c2)N(c2ccccn2)C(=O)C3(C)C)cn1` [Example 44, 3,3-Dimethyl-6-(2-methylpyrimidin-5-yl)-1-(pyridin-2-yl)indolin-2-one] was tested. Which IC50 did it give?
Its IC50 is 1.4 µM.

With `Cc1ncc(-c2ccc3c(c2)N(c2ccncc2F)C(=O)C3(C)C)cn1` [Example 46, 1-(3-Fluoropyridin-4-yl)-3,3-dimethyl-6-(2-methylpyrimidin-5-yl)indolin-2-one] as the molecule, how does the IC50 read?
Its IC50 is 3.53 µM.

`Cc1ncc(-c2ccc3c(c2)N(c2cc(F)ncc2C)C(=O)C3(C)C)cn1` [Example 47, 1-(2-Fluoro-5-methylpyridin-4-yl)-3,3-dimethyl-6-(2-methylpyrimidin-5-yl)indolin-2-one] was tested. Which IC50 did it give?
Its IC50 is 7.19 µM.

How did the IC50 turn out when `Cc1ncc(-c2ccc3c(c2)N(c2nnc(C)o2)C(=O)C3(C)C)cn1` [Example 51, 3,3-Dimethyl-1-(5-methyl-1,3,4-oxadiazol-2-yl)-6-(2-methylpyrimidin-5-yl)indolin-2-one] was run?
The IC50 was 1.85 µM.

For `Cc1ncc(-c2ccc3c(c2)N(c2ccncc2Cl)C(=O)C3(C)C)cn1` [Example 52, 1-(3-Chloropyridin-4-yl)-3,3-dimethyl-6-(2-methylpyrimidin-5-yl)indolin-2-one], which IC50 is on record?
The IC50 was 6.96 µM.

For `Cc1ncc(-c2ccc3c(c2)N(c2cc[nH]n2)C(=O)C3(C)C)cn1` [Example 55, 3,3-Dimethyl-6-(2-methylpyrimidin-5-yl)-1-(1H-pyrazol-3-yl)indolin-2-one], which IC50 is on record?
The IC50 was 2.41 µM.

With `Cc1ccc(N2C(=O)C(C)(C)c3ccc(-c4cnc(C)nc4)cc32)nc1` [Example 56, 3,3-Dimethyl-1-(5-methylpyridin-2-yl)-6-(2-methylpyrimidin-5-yl)indolin-2-one] as the molecule, how does the IC50 read?
The IC50 was 0.316 µM.

Which IC50 does the source give for `Cc1cnc(N2C(=O)C(C)(C)c3ccc(-c4cnc(C)nc4)cc32)cn1` [Example 57, 3,3-Dimethyl-1-(5-methylpyrazin-2-yl)-6-(2-methylpyrimidin-5-yl)indolin-2-one] here?
Its IC50 is 0.027 µM.

How did the IC50 turn out when `Cc1cncc(N2C(=O)C(C)(C)c3ccc(-c4cnc(C)nc4)cc32)c1` [Example 59, 3,3-Dimethyl-1-(5-methylpyridin-3-yl)-6-(2-methylpyrimidin-5-yl)indolin-2-one] was run?
Its IC50 is 0.657 µM.

With `Cc1ccnc(N2C(=O)C(C)(C)c3ccc(-c4cnc(C)nc4)cc32)c1` [Example 60, 3,3-Dimethyl-1-(4-methylpyridin-2-yl)-6-(2-methylpyrimidin-5-yl)indolin-2-one] as the molecule, how does the IC50 read?
Its IC50 is 3.78 µM.

`Cc1cccc(N2C(=O)C(C)(C)c3ccc(-c4cnc(C)nc4)cc32)n1` [Example 61, 3,3-Dimethyl-1-(6-methylpyridin-2-yl)-6-(2-methylpyrimidin-5-yl)indolin-2-one] was tested. Which IC50 did it give?
The IC50 was 0.946 µM.

For `Cc1cncc(N2C(=O)C(C)(C)c3ccc(-c4cnc(C)nc4)cc32)n1` [Example 63, 3,3-Dimethyl-1-(6-methylpyrazin-2-yl)-6-(2-methylpyrimidin-5-yl)indolin-2-one], which IC50 is on record?
Its IC50 is 0.67 µM.

How did the IC50 turn out when `Cc1ccnc(N2C(=O)C(C)(C)c3ccc(-c4cnc(C)nc4)cc32)n1` [Example 64, 3,3-Dimethyl-1-(4-methylpyrimidin-2-yl)-6-(2-methylpyrimidin-5-yl)indolin-2-one] was run?
Its IC50 is 5.09 µM.

For `Cc1ncc(-c2ccc3c(c2)N(c2cn(C)c(C)n2)C(=O)C3(C)C)cn1` [Example 65, 1-(1,2-Dimethyl-1H-imidazol-4-yl)-3,3-dimethyl-6-(2-methylpyrimidin-5-yl)indolin-2-one], which IC50 is on record?
Its IC50 is 6.74 µM.
